Article PMC3914206

Legend:
Assay type in all cases: binding
panel of 442 kinases [1] = target: T1, panel of 442 kinases (Homo sapiens, UniProt P07949); conditions: Compound Concentration 10 µM
T1 construct: purchased KINOMEscan
Text: (§1) We assessed the selectivity of members of this scaffold using the KINOMEscan methodology across a near comprehensive panel of 442 kinases [[18,27]].

panel of 442 kinases [2] = target: T2, panel of 442 kinases (Homo sapiens, UniProt P78356); conditions: Compound Concentration 10 µM
T2 construct: purchased KINOMEscan
T2 sequence (P78356 1-416): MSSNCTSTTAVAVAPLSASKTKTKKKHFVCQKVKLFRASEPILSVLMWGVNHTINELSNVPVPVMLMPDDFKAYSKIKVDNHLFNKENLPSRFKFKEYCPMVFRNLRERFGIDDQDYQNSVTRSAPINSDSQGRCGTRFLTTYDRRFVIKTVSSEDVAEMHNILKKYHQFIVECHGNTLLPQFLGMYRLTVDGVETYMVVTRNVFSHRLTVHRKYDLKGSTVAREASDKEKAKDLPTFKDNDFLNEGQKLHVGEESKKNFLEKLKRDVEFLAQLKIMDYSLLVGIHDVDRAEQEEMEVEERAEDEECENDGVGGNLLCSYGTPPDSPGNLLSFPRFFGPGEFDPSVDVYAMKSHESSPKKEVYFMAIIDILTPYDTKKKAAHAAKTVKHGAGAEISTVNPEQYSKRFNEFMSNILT
Text: as §1

panel of 442 kinases [3] = target: T3, panel of 442 kinases (Homo sapiens, UniProt P37173); conditions: kinase TGFBR2; compound concentration 10 µM
T3 construct: purchased KINOMEscan
Text: as §1

T1 sequence (P07949 29-1114): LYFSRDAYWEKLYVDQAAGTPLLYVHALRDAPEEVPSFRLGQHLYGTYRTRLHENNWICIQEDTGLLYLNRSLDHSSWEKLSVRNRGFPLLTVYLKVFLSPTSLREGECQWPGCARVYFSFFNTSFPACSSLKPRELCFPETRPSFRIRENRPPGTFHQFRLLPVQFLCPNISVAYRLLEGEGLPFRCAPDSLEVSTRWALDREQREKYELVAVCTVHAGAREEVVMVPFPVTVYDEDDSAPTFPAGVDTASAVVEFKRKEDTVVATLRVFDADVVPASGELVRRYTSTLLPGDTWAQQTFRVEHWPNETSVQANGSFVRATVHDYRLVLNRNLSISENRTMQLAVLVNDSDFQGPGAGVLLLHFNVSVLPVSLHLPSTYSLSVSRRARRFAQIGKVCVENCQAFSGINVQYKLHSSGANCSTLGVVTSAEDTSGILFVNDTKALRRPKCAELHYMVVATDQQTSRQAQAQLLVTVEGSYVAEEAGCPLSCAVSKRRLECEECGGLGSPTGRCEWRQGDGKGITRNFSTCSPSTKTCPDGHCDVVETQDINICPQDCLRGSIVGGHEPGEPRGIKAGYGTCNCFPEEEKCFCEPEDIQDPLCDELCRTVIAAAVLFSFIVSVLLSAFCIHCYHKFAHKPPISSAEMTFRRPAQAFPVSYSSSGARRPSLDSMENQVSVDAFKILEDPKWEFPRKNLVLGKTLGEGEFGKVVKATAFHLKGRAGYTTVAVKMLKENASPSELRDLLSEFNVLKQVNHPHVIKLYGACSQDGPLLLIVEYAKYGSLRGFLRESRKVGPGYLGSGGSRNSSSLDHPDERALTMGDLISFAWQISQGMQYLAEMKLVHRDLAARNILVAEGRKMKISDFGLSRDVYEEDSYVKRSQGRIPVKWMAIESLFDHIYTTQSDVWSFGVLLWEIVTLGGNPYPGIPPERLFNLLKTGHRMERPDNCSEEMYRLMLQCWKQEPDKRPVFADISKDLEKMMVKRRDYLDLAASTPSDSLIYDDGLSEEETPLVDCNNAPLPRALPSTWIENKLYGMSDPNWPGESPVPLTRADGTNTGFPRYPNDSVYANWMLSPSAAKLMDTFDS
T3 sequence (P37173 23-567): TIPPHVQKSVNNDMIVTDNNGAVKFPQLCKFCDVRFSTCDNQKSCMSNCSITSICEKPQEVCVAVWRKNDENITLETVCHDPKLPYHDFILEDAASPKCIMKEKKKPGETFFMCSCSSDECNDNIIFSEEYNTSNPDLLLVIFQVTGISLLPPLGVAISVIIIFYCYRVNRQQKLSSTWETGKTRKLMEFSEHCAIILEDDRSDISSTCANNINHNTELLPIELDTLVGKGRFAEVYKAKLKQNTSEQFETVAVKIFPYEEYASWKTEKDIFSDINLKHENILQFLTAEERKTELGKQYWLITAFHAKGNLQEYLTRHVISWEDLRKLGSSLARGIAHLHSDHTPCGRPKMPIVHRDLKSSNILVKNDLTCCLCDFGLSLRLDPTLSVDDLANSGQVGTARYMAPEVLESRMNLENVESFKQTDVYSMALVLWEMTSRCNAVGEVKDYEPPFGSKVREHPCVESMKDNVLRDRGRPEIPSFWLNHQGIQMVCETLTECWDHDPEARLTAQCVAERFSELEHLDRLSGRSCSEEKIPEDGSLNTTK

| SMILES | KINOMEscan: RET (panel of 442 kinases [1]) | KINOMEscan: PIP5K2B (panel of 442 kinases [2]) | % Ctrl, TGFBR2 (panel of 442 kinases [3]) |
| --- | --- | --- | --- |
| COc1cc(C(=O)N2CCC(N3CCN(C)CC3)CC2)ccc1Nc1ncc2c(n1)N(C)c1ccccc1C(=O)N2C [15 (LRRK2-IN-1)] | 100 | 100 | 100 % Ctrl |
| COc1cc(C(=O)N2CCC(N3CCN(C)CC3)CC2)ccc1Nc1ncc2c(n1)N1CCc3cccc(c31)C(=O)N2C [Compound 24] | – | – | 100 % Ctrl |
| COc1cc(C(=O)N2CCC(N3CCN(C)CC3)CC2)ccc1Nc1ncc2c(n1)N(C1CCCC1)c1ccccc1C(=O)N2C [Compound 25, 11-cyclopentyl-2-((2-methoxy-4-(4-(4-methylpiperazin-1-yl)piperidine-1-carbonyl)phenyl)amino)-5-methyl-5H-benzo[e]pyrimido[5,4-b][1,4]diazepin-6(11H)-one] | 100 | 100 | 100 % Ctrl |
| CCOc1cc(C(=O)N2CCC(N3CCN(C)CC3)CC2)ccc1Nc1ncc2c(n1)N(C1CCCC1)c1ccccc1C(=O)N2C [Compound 26] | 100 | 100 | 100 % Ctrl |
